One test relates to Pluteus. The experiment in a line: Decrease in mobility of Pluteus larvae at 10 ug/ml. Type of test: functional, organism-based.
Test [1] concerns Echinoidea. As to the kind of experiment: Effect on fertilized sea urchin egg division assessed as delaying of metamorphosis at 5 ug/ml. Format: functional.
Test [2] relates to Echinoidea. The experiment in a line: Inhibition of sea urchin egg division at 5 ug/ml. Type of test: functional.
The subject of test [3] is Echinoidea. As to the kind of experiment: Inhibition of sea urchin egg division at 20 ug/ml. Type of test: functional.

Molecules are shown by their SMILES. The source made the active and inactive calls. The calls are words filed in the database; no cut-off is given here.

As for `Cn1c(Br)c(C=O)c2cc(Br)c(Br)cc21`, the outcome in the test with Pluteus and in the test on Echinoidea [1] was Active.

`Cn1c(Br)c(C[N+](C)(C)[O-])c2cc(Br)c(Br)cc21`: the result in the test with Echinoidea [2] and in the test on Echinoidea [3] was Active.

Regarding `CN(C)Cc1c(Br)n(C)c2cc(Br)c(Br)cc12`, the outcome with Echinoidea [2] and with Echinoidea [3] was Active.

The values are drawn from ChEMBL document CHEMBL1147358, “A New Brominated Indole-3-carbaldehyde from the Marine Bryozoan Zoobotryon verticillatum” (J Nat Prod, 1993).
